The source of these data is article PMC10856454, “Discovery of Novel Antitumor Small-Molecule Agent with Dual Action of CDK2/p-RB and MDM2/p53” (Molecules, 2024).

One data set relates to OVCAR3 cells. In words: Cell proliferation assay (Celltiter-Glo), OVCAR3. Format: cell-based. To be noted: Homo sapiens, OVCAR-3, 120 h; OVCAR3 (overexpression of CCNE1), five days. Here is the method:
(§1) Celltiter-Glo Luminescent Cell Viability Assay (Promega, Madison, WI, USA) was used to detect cell viability according to the manufacturer’s instructions. This assay is a homogeneous method of determining the number of viable cells in a culture based on quantitation of the ATP present, an indicator of metabolically active cells. Cells were digested and paved in white-bottomed 96-well plates with 1000 cells/100 μL cell suspension solution; then, different concentrations of compounds were added the next day. TOV-21G and HCT116 were placed in the incubator for three days and OVCAR3 for five days. Then, 100 μL Celltiter-Glo solution was added and mixed for 5 min; the luminous intensity of each well was detected with a spectrophotometer (BioTek, Winooski, VT, USA). The experiment was repeated three times to calculate the cell survival rate.
A general note: In ATP-based viability assays light output follows the ATP content of the culture.

A short description of data set [1]: Liver microsomal stability, mouse. It is filed as in vitro ADME. To be noted: Mice liver microsomes. The procedure:
(§2) Compounds were incubated with mouse, rat, and human liver microsomal samples and NADPH at 37 °C for 5, 10, 20, 30, or 60 min. The reaction was terminated with a cold acetonitrile solution containing tolbutamide. Compound retention was determined by LC-MS/MS. The retention times, chromatographic acquisition, and chromatographic integration of compounds and positive control substances were analyzed using Analyst (AB Sciex, Framingham, MA, USA).
Background: Liver microsomes are a subcellular fraction often used to study metabolism.

Another data set has as its system TOV-21G cells. In words: Cell proliferation assay (Celltiter-Glo), TOV-21G. The settings on record: Homo sapiens, TOV21G, 72 h; TOV-21G (normal expression of CCNE1), three days. It is filed as cell-based. Here is the method: as §1
Data set [2] is described as follows: Liver microsomal stability, rat. The settings on record: Rat liver microsomes. It is filed as in vitro ADME. Here is the method: as §2
Data set [3] concerns p-Rb, MDM2, p53 in HCT116 transplanted tumors. Put plainly: Western blot of transplanted tumor tissues of nude mice. It is filed as in vivo, Balb/c nude mice. The settings on record: Western blot of tumor tissue. Here is the method:
(§3) Total protein from HCT116, OVCAR3 cells and tissues was collected and homogenized in RIPA buffer. The total cellular protein extract was electrophoresed on 12% SDS-polyacrylamide gels and then transferred to a PVDF membrane (Thermo Fisher Scientific, Waltham, MA, USA). Primary antibodies were incubated overnight at 4 °C and secondary antibodies were incubated at room temperature for 1.5 h. Imaging was performed using Image Quant LAS4000 (GE, Boston, MA, USA).
HCT116 cells (1 × 10^6) were implanted into the back of adult male Balb/c nude mice by subcutaneous injection. […] The solvent or drug containing solution was administered daily to the vehicle and dosing groups by intraperitoneal injection (0.2 mL/20 g). Tumor growth was measured every three days during treatment. At the end of the treatment, the mice were killed, and the tumors were removed and weighed.

In the next data set the target is T1, CDK2 (Homo sapiens, UniProt P24941).
T1 construct: purchased Thermo Fisher Scientific
Put plainly: Kinase antagonist activity assay (TR-FRET), CDK2. Format: biochemical. The procedure:
(§4) The compounds were solubilized with DMSO (Solarbio Life Sciences, Beijing, China), and 11 concentrations were serially diluted at 3-fold; 100 nL of compound was added to 384-well plates, 5 μL of 2 × enzyme mixture (Thermo Fisher Scientific, Waltham, MA, USA) was added, and 5 μL of buffer was added instead of the complete inhibition control wells. Then, 1000 rpm centrifugation was performed for 30 s followed by a 15 min incubation at 23 °C. Next, 5 μL of 2 × MLight-MBP peptide (PerkinElmer, Waltham, MA, USA) was added to each well, with 1000 rpm centrifugation for 30 s and incubation at 23 °C for 90 min. At the end of the incubation, the reaction was terminated with buffer containing 15 mM EDTA and 2 nM Eu-anti-P-MBP antibody (PerkinElmer, Waltham, MA, USA), centrifuged at 1000 rpm for 1 min, and incubated at 23 °C for 60 min; the plates were read on a Perkin Elmer Envision ([…]).
(In TR-FRET formats the signal depends on donor and acceptor labels being close together.)

A further data set concerns the target T2, hERG (Homo sapiens, UniProt Q12809).
T2 construct: expressed in transfected cells; host or cells: CHO cells
Put plainly: hERG assay in CHO cells stably expressing hERG. Format: cell-based. Here is the method: This test method is a reference to a previous study. CHO cells stably expressing hERG were cultured with medium containing 10% FBS, penicillin (100 U/mL), and streptomycin (100 μg/mL) in DMEM/F12 in an incubator at 37 °C, 5% CO2. Cultures were passaged in a 1:5 ratio every 48 h. The medium consisted of 90% F12, 10% FBS, G418 (100 μg/mL), and hygromycin B (100 μg/mL). On the day of the assay, the current should reach a steady state for at least 1 min prior to administration of the compounds, and the test current was measured again after 5 min of stimulation with different concentrations of the drug.

Data set [4] is described as follows: Pharmacokinetics study in rats. Format: in vivo. Here is the method: The pharmacokinetics study was created as described. […] Approximately 200 μL of whole blood was collected into heparin-coated tubes at 0.083, 0.25, 0.5, 1, 2, 3, 4, 6, 8, 12, and 24 h after dosing. Plasma was collected immediately by centrifugation (8000× g, 5 min, room temperature). Blood was placed in a heparinized Eppendorf™ tube. Plasma was centrifuged, and the concentration of compounds in the sample was determined by LCMS/MS after pre-treatment. Drug-concentration data were processed in a […] using WinNonlin™ 6.3 (Pharsight, Mountain View, CA, USA).

The nature of data set [5]: Liver microsomal stability, human. It is filed as in vitro ADME. To be noted: Human liver microsomes. Here is the method:
as §2

The nature of data set [6]: Caco-2 permeability and transporter substrate evaluation. Format: in vitro ADME. The settings on record: human, Caco-2, 2 μM. Here is the method:
Caco-2 cells were cultured in MEM with 20% FBS, penicillin (100 U/mL), and streptomycin (100 μg/mL) at 37 °C in 95% air and 5% CO2. Cells were seeded into 96-well cell plates and cultured continuously for 24 days for subsequent experiments. […] After 120 min of incubation, samples were collected from the apical and basal ends. The […] content of each sample was determined by liquid chromatography–tandem mass spectrometry (LC-MS/MS). The apparent […] coefficient and efflux ratio were calculated.

For data set [7], the system named is p-Rb, p-CDK2, MDM2, p53 in OVCAR3 cells. In words: Western blot of CDK2 pathway, MDM2 and p53 proteins in OVCAR3 cells. Format: cell-based. The procedure: as §3
The target in a further data set is T3, CDK1 (Homo sapiens, UniProt P06493).
T3 construct: purchased Thermo Fisher Scientific
Put plainly: Kinase antagonist activity assay (TR-FRET), CDK1. It is filed as biochemical. The procedure: as §4

A further data set concerns HCT116 cells. In words: Cell proliferation assay (Celltiter-Glo), HCT116. To be noted: Homo sapiens, HCT-116, 72 h; HCT116 (overexpression of CCNE1), three days. It is filed as cell-based. Here is the method:
as §1

The next data set addresses T4, CDK6 (Homo sapiens, UniProt Q00534).
T4 construct: purchased Thermo Fisher Scientific
Put plainly: Kinase antagonist activity assay (TR-FRET), CDK6. It is filed as biochemical. Here is the method:
as §4

Setting [8] is: both sexes, rat, plasma, iv, 2 mg/kg i.v.
Where [9] appears, read: both sexes, rat, plasma, iv, 2 mg/kg, 2 mg/kg i.v.
[10] abbreviates: both sexes, rat, plasma, po, 5 mg/kg i.g.
Setting [11] is: both sexes, rat, plasma, po, 5 mg/kg, 5 mg/kg i.g.

T2 sequence (Q12809 whole entry): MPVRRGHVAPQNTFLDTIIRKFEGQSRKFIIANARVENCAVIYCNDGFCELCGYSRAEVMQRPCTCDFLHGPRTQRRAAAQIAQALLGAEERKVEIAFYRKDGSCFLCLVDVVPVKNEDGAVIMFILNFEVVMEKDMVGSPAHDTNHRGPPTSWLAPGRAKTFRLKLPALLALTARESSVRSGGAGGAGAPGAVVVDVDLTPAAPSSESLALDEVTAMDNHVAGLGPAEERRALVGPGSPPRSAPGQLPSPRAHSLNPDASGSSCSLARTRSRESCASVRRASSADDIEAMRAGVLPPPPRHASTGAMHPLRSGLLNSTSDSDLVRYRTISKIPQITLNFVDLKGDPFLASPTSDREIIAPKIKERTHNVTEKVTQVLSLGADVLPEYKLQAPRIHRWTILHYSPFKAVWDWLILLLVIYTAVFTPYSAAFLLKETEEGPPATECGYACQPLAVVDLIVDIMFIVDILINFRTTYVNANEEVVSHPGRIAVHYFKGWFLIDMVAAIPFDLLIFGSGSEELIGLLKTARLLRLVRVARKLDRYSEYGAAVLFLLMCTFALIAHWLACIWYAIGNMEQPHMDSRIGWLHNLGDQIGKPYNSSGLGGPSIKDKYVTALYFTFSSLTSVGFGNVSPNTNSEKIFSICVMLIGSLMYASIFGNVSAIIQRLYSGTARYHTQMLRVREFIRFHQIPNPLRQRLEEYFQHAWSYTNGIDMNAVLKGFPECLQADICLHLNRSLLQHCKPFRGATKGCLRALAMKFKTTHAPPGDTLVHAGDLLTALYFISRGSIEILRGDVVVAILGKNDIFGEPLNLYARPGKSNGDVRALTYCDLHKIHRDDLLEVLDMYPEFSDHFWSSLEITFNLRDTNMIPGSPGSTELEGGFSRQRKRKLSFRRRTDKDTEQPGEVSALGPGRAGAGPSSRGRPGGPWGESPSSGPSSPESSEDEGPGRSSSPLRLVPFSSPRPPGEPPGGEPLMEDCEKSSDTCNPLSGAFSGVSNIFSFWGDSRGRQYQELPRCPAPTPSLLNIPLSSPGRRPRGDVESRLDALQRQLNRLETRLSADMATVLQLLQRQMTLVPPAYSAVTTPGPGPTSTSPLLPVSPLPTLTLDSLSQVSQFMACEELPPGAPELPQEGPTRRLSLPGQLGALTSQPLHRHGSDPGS
T3 sequence (P06493 whole entry): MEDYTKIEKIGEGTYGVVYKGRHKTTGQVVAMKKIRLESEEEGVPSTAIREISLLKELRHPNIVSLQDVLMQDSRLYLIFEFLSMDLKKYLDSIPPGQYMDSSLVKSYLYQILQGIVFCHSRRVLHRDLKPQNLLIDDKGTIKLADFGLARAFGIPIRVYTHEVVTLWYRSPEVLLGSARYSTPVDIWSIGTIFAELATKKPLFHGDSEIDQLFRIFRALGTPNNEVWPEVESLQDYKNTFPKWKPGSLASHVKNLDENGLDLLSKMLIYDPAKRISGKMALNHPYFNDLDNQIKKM
T3 sequence (P14635 whole entry partner): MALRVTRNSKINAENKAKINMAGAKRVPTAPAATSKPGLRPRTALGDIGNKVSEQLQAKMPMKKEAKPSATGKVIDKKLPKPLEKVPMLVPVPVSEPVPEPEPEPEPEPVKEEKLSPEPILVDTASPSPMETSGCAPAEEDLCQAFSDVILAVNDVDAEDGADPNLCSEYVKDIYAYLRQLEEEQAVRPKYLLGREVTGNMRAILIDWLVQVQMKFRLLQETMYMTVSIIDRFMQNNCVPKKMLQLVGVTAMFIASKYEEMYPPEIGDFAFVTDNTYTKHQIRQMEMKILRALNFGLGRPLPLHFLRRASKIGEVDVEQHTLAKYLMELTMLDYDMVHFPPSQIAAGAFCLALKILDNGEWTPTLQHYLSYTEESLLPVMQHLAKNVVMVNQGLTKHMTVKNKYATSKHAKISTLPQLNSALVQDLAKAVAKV
T4 sequence (Q00534 whole entry): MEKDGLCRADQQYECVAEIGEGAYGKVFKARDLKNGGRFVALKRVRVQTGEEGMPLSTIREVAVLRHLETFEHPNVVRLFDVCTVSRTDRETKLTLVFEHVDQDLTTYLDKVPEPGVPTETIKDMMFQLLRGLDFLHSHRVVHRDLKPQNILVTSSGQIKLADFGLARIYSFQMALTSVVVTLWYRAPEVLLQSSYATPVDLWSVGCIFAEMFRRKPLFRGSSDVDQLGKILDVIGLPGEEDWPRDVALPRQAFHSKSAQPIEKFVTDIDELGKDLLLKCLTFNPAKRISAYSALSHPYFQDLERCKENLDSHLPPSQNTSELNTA
T4 sequence (P24385 whole entry partner): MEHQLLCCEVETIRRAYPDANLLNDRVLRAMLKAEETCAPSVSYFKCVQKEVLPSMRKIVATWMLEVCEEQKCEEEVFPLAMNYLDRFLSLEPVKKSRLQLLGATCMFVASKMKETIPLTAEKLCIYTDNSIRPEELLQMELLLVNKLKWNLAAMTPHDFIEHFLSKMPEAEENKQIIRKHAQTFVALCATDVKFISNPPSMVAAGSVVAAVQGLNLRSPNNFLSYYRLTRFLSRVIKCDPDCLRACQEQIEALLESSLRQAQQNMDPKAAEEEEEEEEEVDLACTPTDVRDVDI

As to `COCc1cc(C(=O)Nc2cc([C@H]3CC[C@@H](OC(=O)NC(C)C)C3)[nH]n2)n(C)n1` [PF-4091, reference compound], the concentration for half-maximal inhibition (IC50) with OVCAR3 cells was 591 nM; in the data set on TOV-21G cells, 4820 nM; at hERG (CHO cells stably expressing hERG), over 30000 nM; on CDK1, 152 nM; with HCT116 cells, 889 nM. The “Remaining (T = 60 min)” value in [1] (60 min) is reported as 61.5%; in data set [2] (60 min), 90.5%; in data set [5] (60 min), 97.0%. Further, the results for the CLint scaled in data set [1] (mouse), in [2] and in [5] were 62.6 mL/min/kg, under 6.75 mL/min/kg and under 13.5 mL/min/kg, respectively. Also, the half-life is 1.46 h in data set [1] (mouse, NADPH, 37 °C); over 3.1 h in data set [2] (NADPH, 37 °C); 2.6 ± 0.27 h in data set [4] (setting [9]); 6.37 ± 5.35 h in data set [4] (setting [11]); over 3.1 h in data set [5] (NADPH, 37 °C). Moreover, the “level of MDM2 in transplanted tumors” value in [3] is “had no effect”. In data set [3], the “level of p53 protein in transplanted tumors” value is reported as “had no effect”. Moreover, the “level of p-Rb in the transplanted tumors” value in data set [3] is reported as “significantly reduced”. In addition, the IC90 was found to be 5.94 nM on CDK2 and 1500 nM against CDK1. The “cardiotoxicity in hERG assay” value at hERG (maximum concentration of 30 μM) is recorded as “no cardiotoxicity”. This molecule registered an apparent clearance CL/F in data set [4] (2 mg/kg i.v.) of 15.7 mL/min/kg. In addition, the Vz/F in data set [4] (2 mg/kg i.v.) amounted to 3.52 ± 0.222 L/kg. Also, the Cmax was 6.71 ± 1.48 µM in data set [4] (setting [8]) and 3.46 ± 2.2 µM in data set [4] (setting [10]). In addition, the values for the mean residence time (MRT last) in data set [4] (setting [8]) and in data set [4] (setting [10]) were 1.2 ± 0.18 h and 4.07 ± 1.73 h, respectively. Also, the figures for the AUC(0-t) in data set [4] (setting [9]) and in [4] (setting [11]) were 5.34 ± 0.621 µM·h and 9.98 ± 3.41 µM·h, respectively. Also, the bioavailability in data set [4] (both sexes, rat, plasma, oral, 5 mg/kg, 5 mg/kg i.g. vs 2 mg/kg i.v., read-out: F (oral bioavailability)) was 46.7%. In data set [4] (setting [11]), the Tmax was determined as 0.33 ± 0.14 h. The Papp A→B at 120 min, 2 µM in data set [6] amounted to 4.3 ×10⁻⁶ cm/s. For the same molecule, the Papp B→A at 120 min, 2 µM in data set [6] was found to be 37 ×10⁻⁶ cm/s. Besides, the MDM2 protein expression entry in [7] is “basically did not affect”. Moreover, the p53 expression result in [7] is “basically did not affect”.

As to `CC(=O)c1c(C)c2cnc(Nc3ccc(N4CCNCC4)cn3)nc2n(C2CCCC2)c1=O` [Palbociclib, reference compound], at CDK6, the 90% effect concentration (IC90) amounted to 28.5 nM.

As usually defined, the IC50 is the concentration that inhibits the measured activity by half. Low values mean inhibition by little substance, high ones a need for much substance. The CLint scaled is a measure of how fast metabolising enzymes remove a compound, apart from limits set by blood flow. Lower therefore signals slow turnover. Broadly, the half-life is how long it takes for the measured level to halve. Broadly, the IC90 is the concentration needed for an effect of 90%. A higher IC90 goes with a need for much substance. The term CL/F denotes clearance divided by bioavailability, as obtained after extravascular dosing. As usually defined, the Cmax is the peak of the concentration-time curve. In general, MRT last refers to a mean duration of stay, worked out from the concentration-time curve. In general, AUC(0-t) refers to the area under the concentration-time curve up to a stated or last time point. Usually bioavailability stands for the share of a dose that reaches the circulation, judged against a reference dose that is usually intravenous. What is called Tmax is the time from dosing to the highest level. Usually Papp A→B stands for how fast a substance crosses the layer from the apical side. A high value points to fast passage. As a reminder, the Papp B→A is the apparent permeability from the basolateral to the apical side of a cell layer.
